Reference: patent US7851637B2, “Compounds and methods for inhibiting the interaction of BCL proteins with binding partners” (Infinity Pharmaceuticals, Inc., priority 2004, dated 2010)
Read-outs that look alike come from different tables or passages of the source.

What was measured:
[1] = test system: RL Human Follicular Lymphoma Cell Line; test: Alamar blue cytotoxicity assay in RL cells; type: cell-based; settings: Homo sapiens, 72 h incubation, read-out: Bcl RL Alamar Blue IC50
In short: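 Compounds tested at 29 uM to 0.013 uM final (0.3% DMSO) on 30,000 RL cells per well. After 72 h at 37 C, 5% CO2, viability read with Alamar blue.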

Bcl-xL = Bcl-xL (Homo sapiens, UniProt Q07817); test: Bcl-xL binding affinity analysis (fluorescence polarization binding assay); parameters: scale not given here
Chain of Bcl-xL (Q07817 whole entry): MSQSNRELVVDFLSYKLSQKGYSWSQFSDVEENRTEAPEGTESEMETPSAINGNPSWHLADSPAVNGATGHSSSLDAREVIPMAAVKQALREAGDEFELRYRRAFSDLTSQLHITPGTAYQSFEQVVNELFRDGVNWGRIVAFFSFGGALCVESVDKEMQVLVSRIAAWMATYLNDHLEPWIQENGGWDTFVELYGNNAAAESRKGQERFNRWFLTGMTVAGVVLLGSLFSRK
In short: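 In vitro fluorescence polarization binding assay measuring compound binding to human Bcl-xL.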

[2] = test system: Human Pancreatic Cancer Cell Line Panc1; test: Cell death assay (propidium iodide/Hoechst) in Panc1 cells with or without camptothecin; type: cell-based; settings: 72 hours, % cell death by propidium iodide/Hoechst
In short: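 Panc1 cells, 10,000/well, exposed 72 h at 37 C to compound (29 uM to 0.13 uM, 0.3% DMSO) with or without 3 uM camptothecin. Propidium iodide and Hoechst staining imaged by fluorescence microscopy; % cell death = PI-stained/Hoechst-stained cells × 100.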

Bcl-2 = Bcl-2 (Homo sapiens, UniProt P10415); test: Bcl-2 binding affinity analysis (fluorescence polarization binding assay)
Chain of Bcl-2 (P10415 whole entry): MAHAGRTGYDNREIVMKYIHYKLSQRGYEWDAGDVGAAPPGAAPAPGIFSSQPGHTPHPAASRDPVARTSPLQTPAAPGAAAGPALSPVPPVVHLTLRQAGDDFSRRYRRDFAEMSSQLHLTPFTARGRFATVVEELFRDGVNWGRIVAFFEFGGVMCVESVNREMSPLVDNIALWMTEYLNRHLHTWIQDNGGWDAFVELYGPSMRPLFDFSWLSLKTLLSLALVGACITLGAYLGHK
In short: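 Binding to human Bcl-2 quantified in vitro by a fluorescence polarization assay.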

[3] = Homo sapiens, PANC-1, without camptothecin, read-out: Panc1 − Cpt IC50
[4] = with 3 uM Camptothecin, read-out: Panc1 + Cpt IC50

Row | SMILES | Bcl-XL binding affinity Ki (Bcl-xL) | Ki (Bcl-2) [nM] | IC50 [1] [nM] | IC50 [2, 3] [nM] | IC50 [2, 4] [nM]
1 | CC(O)C1C(CO)ON(Cc2cccc(CN(Cc3ccccc3)C(CN(C)C)CC(C)(C)C)c2)C1C(=O)NC1CC2CC(C1C)C2(C)C (centres unmarked) [Compound 414] | ♯ | < 800 | 2000 to 5000 | > 2500 | 1800 to 2500
2 | CC(C)CC(CN(C)C)N(Cc1cccc(CN2OC(CO)C(C(C)O)C2C(=O)NC2CC3CC(C2C)C3(C)C)c1)Cc1ccccc1[N+](=O)[O-] (centres unmarked) [Compound 316] | ♯ | < 800 | > 5000 | > 2500 | > 2500
3 | COc1c(CN2O[C@@H](CO)[C@@H]([C@H](C)O)[C@H]2C(=O)N[C@H]2C[C@H]3C[C@@H]([C@@H]2C)C3(C)C)cccc1-c1cccc(C(=O)N[C@H](CN(C)C)C(C)C)c1 [Compound 488] | ♯ | < 800 | 2000 to 5000 | > 2500 | > 2500
4 | COc1c(CN2O[C@@H](CO)[C@@H]([C@H](C)O)[C@H]2C(=O)N[C@H]2C[C@H]3C[C@@H]([C@@H]2C)C3(C)C)cccc1-c1cccc(C(=O)N[C@@H](CC2CCCCC2)CN(C)C)c1 [Compound 487] | ♯ | < 800 | 2000 to 5000 | > 2500 | > 2500

The next lines start with results.

Row | Bcl-XL binding affinity Ki (Bcl-xL) | Ki (Bcl-2) [nM] | SMILES | IC50 [1] [nM] | IC50 [2, 3] [nM] | IC50 [2, 4] [nM]
5 | ♯ | < 800 | CC(O)C1C(CO)ON(Cc2cccc(CN(CCN(C)C)CC3CCOC3)c2)C1C(=O)NC1CC2CC(C1C)C2(C)C (centres unmarked) [Compound 391] | > 5000 | > 2500 | > 2500
6 | ♯ | < 800 | CC(O)C1C(CO)ON(Cc2cccc(CN(CCN(C)C)CC3CCCC3)c2)C1C(=O)NC1CC2CC(C1C)C2(C)C (centres unmarked) [Compound 363] | > 5000 | > 2500 | > 2500
7 | ♯ | < 800 | CC(O)C1C(CO)ON(Cc2cccc(CNC(CC3CCCCC3)CN(C)C)c2)C1C(=O)NC1CC2CC(C1C)C2(C)C (centres unmarked) [Compound 444] | 2000 to 5000 | > 2500 | > 2500
